This is an account of results in patent US11124506B2, “Salts and crystal forms of diaza-benzofluoranthrene compounds” (HARBIN PHARMACEUTICAL GROUP CO., LTD. GENERAL …, priority 2016, dated 2021).

The target in the test is T1, PDE1A (Homo sapiens, UniProt P54750).
T1 construct: purchased SignalChem
Description: In vitro detection of phosphodiesterase (PDE), fluorescence polarization detection of AMP/GMP production. In kind it is biochemical. To be noted: human enzyme (SignalChem), cAMP or cGMP substrate, Ca2+-calmodulin cofactor; read-out: IC50 values measured by PDE1 detection: PDE1. Here is the method: Experimental Example 1: The In Vitro Detection of Phosphodiesterase (PDE)
Principle of the Experiment:
The assay measures PDE1A enzyme activity based on fluorescence polarization detection of AMP/GMP production. The principle of the reaction is to replace the binding of AMP/GMP to its antibody by AlexaFluor 633 labeled AMP/GMP.
Reaction buffer: 10 mM Tris-HCl, pH=7.5, 5 mM magnesium chloride, 0.01% Brij 35, 1 mM DTT, and 1% DMSO;
Enzyme substrate: […] cAMP or cGMP (Ca^2+-calmodulin as a cofactor of PDE1A);
Transcreener® AMP2/GMP2 antibody;
AMP2/GMP2 AlexaFluor 633 marker.
Experimental Procedures and Methods:
1. Human enzyme to be tested (purchased from SignalChem) and the substrate were diluted with a freshly prepared reaction buffer.
2. An enzyme solution (concentration: 3 pM) was added to the wells of a reaction plate.
3. […]
7. The following devices were used for detection: EnVision (PerkinElmer), Cy5FP Ex FP 620, Em S-pol 688/P-pol 688, FP mirror D658fp/D688; fluorescence polarization was detected using Ex/Em 620/688.
Enzymatic activity corresponding to the FP signal was retrieved in an AMP/GMP standard curve using DMSO as a control in an Excel table. […] An analysis was performed using GraphPad Prism and IC50 values were calculated.
Background: Fluorescence polarisation rises when a labelled molecule tumbles more slowly, as on binding a larger partner.

Each structure is given as a SMILES string.

Turning to `CC[C@@]12C=C(c3nc(C)no3)n3c4c(c5ccccc53)CCN(CCC1)[C@H]42` [Compound 1], the IC50 (usually the concentration at which inhibition is half-maximal) was in the range of 1 to 20 µM.
